From patent US20020193422A1, “Anthranilamides and methods of their use” (priority 2001, published 2002)

target: T1, Human Kv1.5 channels (Homo sapiens, UniProt P22460); assay: Kv1.5 currents in Xenopus oocytes, two-microelectrode voltage clamp; format: cell-based; conditions: human Kv1.5 expressed in Xenopus laevis oocytes; 500 ms voltage jumps to 0 mV and 40 mV; room temperature; percentage inhibition of control current fitted with Hill equation
T1 construct: expressed in transfected cells; host or cells: Xenopus laevis oocytes (injected with in vitro synthesized Kv1.5 coding RNA)
T1 sequence (P22460 whole entry): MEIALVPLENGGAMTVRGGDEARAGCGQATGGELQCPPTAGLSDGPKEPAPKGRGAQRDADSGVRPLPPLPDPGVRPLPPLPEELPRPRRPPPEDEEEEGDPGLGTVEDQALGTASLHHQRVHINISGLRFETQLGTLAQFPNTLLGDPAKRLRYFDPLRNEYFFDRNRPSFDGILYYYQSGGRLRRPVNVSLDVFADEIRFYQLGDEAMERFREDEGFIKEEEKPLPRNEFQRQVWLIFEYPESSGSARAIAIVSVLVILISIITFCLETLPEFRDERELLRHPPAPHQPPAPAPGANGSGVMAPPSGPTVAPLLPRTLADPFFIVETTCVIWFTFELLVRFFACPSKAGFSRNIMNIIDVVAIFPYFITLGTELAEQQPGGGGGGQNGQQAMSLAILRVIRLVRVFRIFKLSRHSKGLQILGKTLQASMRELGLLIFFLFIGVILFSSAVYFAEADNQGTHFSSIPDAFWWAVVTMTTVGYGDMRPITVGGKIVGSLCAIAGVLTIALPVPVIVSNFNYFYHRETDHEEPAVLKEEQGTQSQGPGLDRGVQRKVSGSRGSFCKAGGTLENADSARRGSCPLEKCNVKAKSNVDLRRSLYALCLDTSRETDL
Protocol: Human Kv1.5 channels were expressed in xenopus oocytes. For this purpose, oocytes from Xenopus laevis were first isolated and defolliculated. Kv1.5 coding RNA synthesized in vitro was then injected into these oocytes. After Kv1.5 protein expression for 1-7 days, Kv1.5 currents were measured in the oocytes using the two-microelectrode voltage clamp technique. The Kv1.5 channels were activated here with 500 ms voltage jumps to 0 mV and 40 mV. The bath was flushed with a solution of the following: NaCl 96 mM, KCl 2 mM, CaCl2 1.8 mM, MgCl2 1 mM, HEPES 5 mM (titrated with NaOH to pH 7.4). These experiments were carried out at room temperature. The following were used for data collection and analysis: Geneclamp amplifier (Axon Instruments, Foster City, USA) and MacLab D/A converter and software (ADInstruments, Castle Hill, Australia). The compounds according to the invention were tested by adding them to the bath solution in different concentrations. The effects of the compounds were calculated as percentage inhibition of the Kv1.5 control current which was obtained when no compound was added to the solution. The data were then extrapolated using the Hill equation, in order to determine the inhibitory concentrations (IC50) for the respective compounds.

Compound | IC50
CCCCS(=O)(=O)Nc1ccc(C)cc1C(=O)NCc1ccc(Cl)cc1 [Example 21] | 6.1 µM
O=C(NCc1ccccc1)c1cc(Cl)ccc1NS(=O)(=O)c1ccc(Cl)cc1 [Example 22] | 6 µM
COc1ccc(NS(=O)(=O)c2cccc3cccnc23)c(C(=O)NCCc2ccc(OC)c(OC)c2)c1 [Example 23] | 6.9 µM
COc1ccc(NS(=O)(=O)c2ccc(C)cc2)c(C(=O)NCCc2cccs2)c1 [Example 19] | 2.6 µM
CN(Cc1ccccc1)C(=O)c1ccccc1NS(=O)(=O)c1cccc2cccnc12 [Example 24] | 4.6 µM
CCN(C(=O)c1ccccc1NS(=O)(=O)c1cccc2cccnc12)c1ccccc1 [Example 28] | 1.2 µM
COc1ccc(CNC(=O)c2cc(OC)ccc2NS(=O)(=O)c2ccc(Cl)cc2)cc1 [Example 16] | 3.3 µM
Cc1cccc(NS(=O)(=O)c2ccc(Cl)cc2)c1C(=O)NCc1ccc(Cl)cc1 [Example 4] | 2.4 µM
CCN(C(=O)c1ccccc1NS(=O)(=O)c1cccc2ccccc12)c1ccccc1 [Example 29] | 1.9 µM
COc1ccc(NS(=O)(=O)c2cccc(C(F)(F)F)c2)c(C(=O)NCCc2cccs2)c1 [Example 1] | 3 µM
COc1ccc(NS(=O)(=O)c2ccc(C)cc2)c(C(=O)NCc2ccc(C)o2)c1 [Example 3] | 2.1 µM
Cc1ccc(CNC(=O)c2c(C)cccc2NS(=O)(=O)c2ccc(C)c(Cl)c2)o1 [Example 20] | 3.8 µM
COc1ccc(S(=O)(=O)Nc2ccc(OC)cc2C(=O)N(C)Cc2ccccc2)cc1 [Example 15] | 4.5 µM

The next lines start with the values.

IC50 | Compound
1.6 µM | CCN(C(=O)c1cc(C)ccc1NS(=O)(=O)c1ccc(C)cc1)c1ccccc1 [Example 17]
5 µM | CCN(Cc1ccccc1)C(=O)c1ccccc1NS(=O)(=O)c1ccc(C)cc1 [Example 7]
4.2 µM | CCc1ccc(S(=O)(=O)Nc2ccccc2C(=O)N(CC)c2ccccc2)cc1 [Example 25]
4.6 µM | Cc1ccc(S(=O)(=O)Nc2ccccc2C(=O)N(C)CCc2ccccc2)cc1 [Example 8]
3.5 µM | Cc1ccc(S(=O)(=O)Nc2ccccc2C(=O)NCc2cccc(C)c2)cc1 [Example 18]
3.7 µM | CN(CCc1ccccc1)C(=O)c1ccccc1NS(=O)(=O)c1ccccc1 [Example 11]
4.1 µM | Cc1ccc(S(=O)(=O)Nc2ccccc2C(=O)NCc2ccccc2)cc1 [Example 6]
5.6 µM | CCN(C(=O)c1ccccc1NS(=O)(=O)c1ccc2ccccc2c1)c1ccccc1 [Example 26]
3.8 µM | O=C(NCCc1ccccc1)c1ccccc1NS(=O)(=O)c1ccccc1 [Example 10]
3.2 µM | CCN(Cc1ccccc1)C(=O)c1ccccc1NS(=O)(=O)c1ccc(Cl)cc1 [Example 5]
4.1 µM | COc1ccc(S(=O)(=O)Nc2cc(F)ccc2C(=O)N(C)Cc2ccccc2)cc1 [Example 2]
4.1 µM | Cc1ccc(S(=O)(=O)Nc2ccc(F)cc2C(=O)NCCc2ccccc2)cc1 [Example 14]
3.6 µM | Cc1ccc(S(=O)(=O)Nc2ccc(F)cc2C(=O)NCc2ccccc2)cc1 [Example 12]
3 µM | CCN(C(=O)c1ccccc1NS(=O)(=O)c1ccc(C)cc1OC)c1ccccc1 [Example 27]
3.7 µM | CCN(Cc1ccccc1)C(=O)c1cc(F)ccc1NS(=O)(=O)c1ccc(C)cc1 [Example 13]
4.7 µM | CCN(Cc1ccccc1)C(=O)c1ccccc1NS(=O)(=O)c1ccccc1 [Example 9]
